Source: the supplement of paper PMC8671470

Legend:
Settings in all cases: 72 h
SHI-1 [1] = assay: cell viability (% survival relative to DMSO control, bortezomib = 0%); higher = less cytotoxic
Summary of the method: (§1)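 After 72 h at 37 °C with 5% CO2, cell viability in 384-well plates was measured by CellTiter-Glo luminescence. The plates held compounds pre-printed at 1, 10, 100, 1000 or 10000 nM in duplicate, and cells from 10 AML and 5 CML lines seeded at densities titrated to linear growth. Percent survival is the duplicate mean, normalised to vehicle as 100% and a 10 µM positive control as 0%.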

K-562 [2] = assay: as above
Summary of the method: as §1

KU-812 [3] = assay: as above
Summary of the method: as §1

BV-173 [4] = assay: as above
Summary of the method: as §1

Mono-Mac-6 [5] = assay: as above
Summary of the method: as §1

ML-2 [6] = assay: as above
Summary of the method: as §1

NOMO-1 [7] = assay: as above
Summary of the method: as §1

THP-1 [8] = assay: as above
Summary of the method: as §1

KG-1 [9] = assay: as above
Summary of the method: as §1

HEL [10] = assay: as above
Summary of the method: as §1

MV4-11 [11] = assay: as above
Summary of the method: as §1

MOLM-13 [12] = assay: as above
Summary of the method: as §1

HL-60 [13] = assay: as above
Summary of the method: as §1

KCL-22 [14] = assay: as above
Summary of the method: as §1

SHI-1 [15] = system: SHI-1
Summary of the method: (§2)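 Fifteen myeloid leukaemia lines in RPMI 1640 were treated for 72 h at 37 °C and 5% CO2 with five tenfold doses from 1 to 10,000 nM, in duplicate. ATP luminescence was normalised to vehicle and to a positive control at 10 µM, then fitted with a four-parameter log-logistic model. The IC50 came from these fits.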

K-562 [16] = system: K-562
Summary of the method: as §2

KU-812 [17] = system: KU-812
Summary of the method: as §2

BV-173 [18] = system: BV-173
Summary of the method: as §2

Mono-Mac-6 [19] = system: Mono-Mac-6
Summary of the method: as §2

ML-2 [20] = system: ML-2
Summary of the method: as §2

NOMO-1 [21] = system: NOMO-1
Summary of the method: as §2

THP-1 [22] = system: THP-1
Summary of the method: as §2

KG-1 [23] = system: KG-1
Summary of the method: as §2

HEL [24] = system: HEL
Summary of the method: as §2

MV4-11 [25] = system: MV4-11
Summary of the method: as §2

MOLM-13 [26] = system: MOLM-13
Summary of the method: as §2

HL-60 [27] = system: HL-60
Summary of the method: as §2

LAMA-84 = system: LAMA-84
Summary of the method: as §2

KCL-22 [28] = system: KCL-22
Summary of the method: as §2

HL-60 [29] = assay: area under dose-response curve (viability, 1 nM-10 uM) (fraction (0-1)); higher = more sensitive
Summary of the method: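 In 384-well plates, the full library was rescreened in duplicate on HL-60 cells in RPMI 1640 with 10% FBS, at 1–10,000 nM in five tenfold concentrations, for 72 h at 37 °C, 5% CO2. Each run also held DMSO or 100 nM of one of three metabolic inhibitors. Viability was measured by CellTiter-Glo and normalised to DMSO wells and to wells with proteasome inhibitor, present at 10 μM. Any area under the curve comes from four-parameter log-logistic fitting with drc and PharmacoGx.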

CC(C)c1nc(CN(C)C(=O)N[C@H](C(=O)N[C@@H](Cc2ccccc2)C[C@H](O)[C@H](Cc2ccccc2)NC(=O)OCc2cncs2)C(C)C)cs1 [Ritonavir]
Settings	area under dose-response curve, co-treatment: AZD3965 100 nM	area under dose-response curve, co-treatment: DMSO vehicle	area under dose-response curve, co-treatment: pictilisib 100 nM	cell viability, 1 nM [%]	cell viability, 10 nM [%]	cell viability, 100 nM [%]	cell viability, 1000 nM [%]	cell viability, 10000 nM [%]
BV-173 [4]	–	–	–	107	89.8	96	85.7	39.1
HEL [10]	–	–	–	90.8	99.8	107	94.2	87.8
HL-60 [13]	–	–	–	99	101	113	103	86.6
HL-60 [29]	< 0.0301	< 0.0301	< 0.0301	–	–	–	–	–
K-562 [2]	–	–	–	112	112	89	108	75.5
KCL-22 [14]	–	–	–	99.4	102	108	94.5	87.2
KG-1 [9]	–	–	–	95.7	96.8	108	101	71.1
KU-812 [3]	–	–	–	109	95.1	102	95.9	78.8
ML-2 [6]	–	–	–	94.2	94.2	108	83.5	64.4
MOLM-13 [12]	–	–	–	104	104	95.3	96.2	99.3
MV4-11 [11]	–	–	–	120	98.1	95.9	87.2	71.9
Mono-Mac-6 [5]	–	–	–	91.7	98.6	97.6	88.1	79
NOMO-1 [7]	–	–	–	108	88.5	103	90.3	81.3
SHI-1 [1]	–	–	–	100	101	109	104	83.1
THP-1 [8]	–	–	–	97.1	91.7	107	97.3	88.2

Settings	IC50 (cell viability) [nM]
BV-173 [18]	6620
HEL [24]	> 10000
HL-60 [27]	> 10000
K-562 [16]	> 10000
KCL-22 [28]	> 10000
KG-1 [23]	> 10000
KU-812 [17]	> 10000
LAMA-84	> 10000
ML-2 [20]	> 10000
MOLM-13 [26]	> 10000
MV4-11 [25]	> 10000
Mono-Mac-6 [19]	> 10000
NOMO-1 [21]	> 10000
SHI-1 [15]	> 10000
THP-1 [22]	> 10000

O=C1c2cc([N+](=O)[O-])ccc2-n2c1nc1ccccc1c2=O [GNF-Pf-3777]
Settings	area under dose-response curve, co-treatment: AZD3965 100 nM	area under dose-response curve, co-treatment: DMSO vehicle	area under dose-response curve, co-treatment: GSK2194069 100 nM	area under dose-response curve, co-treatment: pictilisib 100 nM	cell viability, 1 nM [%]	cell viability, 10 nM [%]	cell viability, 100 nM [%]	cell viability, 1000 nM [%]	cell viability, 10000 nM [%]
BV-173 [4]	–	–	–	–	95.9	104	89.5	66.4	4.9
HEL [10]	–	–	–	–	98.5	105	105	53.1	13.6
HL-60 [13]	–	–	–	–	89.7	92.2	105	59.1	0.853
HL-60 [29]	0.15	0.122	0.154	0.165	–	–	–	–	–
K-562 [2]	–	–	–	–	102	100	103	56.2	4.1
KCL-22 [14]	–	–	–	–	87.9	115	102	37	21.2
KG-1 [9]	–	–	–	–	99.6	95.6	110	67.1	27.6
KU-812 [3]	–	–	–	–	91.6	91.1	87.9	53.4	6.51
ML-2 [6]	–	–	–	–	96.7	99	97.8	94.1	28.8
MOLM-13 [12]	–	–	–	–	99.5	122	108	75.8	18
MV4-11 [11]	–	–	–	–	106	101	97.1	67.5	2.64
Mono-Mac-6 [5]	–	–	–	–	86.3	104	90.9	66.3	6.53
NOMO-1 [7]	–	–	–	–	92.3	99.9	90.3	86.7	31.8
SHI-1 [1]	–	–	–	–	99.9	104	92	66.6	16.5
THP-1 [8]	–	–	–	–	103	92.2	85.6	62.3	30.9

Settings	IC50 (cell viability) [nM]
BV-173 [18]	1640
HEL [24]	934
HL-60 [27]	1280
K-562 [16]	1110
KCL-22 [28]	538
KG-1 [23]	1290
KU-812 [17]	1310
LAMA-84	1830
ML-2 [20]	6050
MOLM-13 [26]	1580
MV4-11 [25]	1500
Mono-Mac-6 [19]	1780
NOMO-1 [21]	5990
SHI-1 [15]	1930
THP-1 [22]	1220

CC[C@@]1(O)C(=O)OCc2c1cc1n(c2=O)Cc2cc3c(CN(C)C)c(O)ccc3nc2-1 [Topotecan]
Settings	area under dose-response curve, co-treatment: AZD3965 100 nM	area under dose-response curve, co-treatment: DMSO vehicle	area under dose-response curve, co-treatment: GSK2194069 100 nM	area under dose-response curve, co-treatment: pictilisib 100 nM	cell viability, 1 nM [%]	cell viability, 10 nM [%]	cell viability, 100 nM [%]	cell viability, 1000 nM [%]	cell viability, 10000 nM [%]
BV-173 [4]	–	–	–	–	100	56.7	-0.0236	0.0225	0.196
HEL [10]	–	–	–	–	94.8	103	0.201	0.373	0.268
HL-60 [13]	–	–	–	–	94.9	81.7	0.181	0.081	1.02
HL-60 [29]	0.608	0.585	0.58	0.597	–	–	–	–	–
K-562 [2]	–	–	–	–	90.8	92.7	48.3	13.2	4.27
KCL-22 [14]	–	–	–	–	97.2	97.8	27.9	5.33	1.56
KG-1 [9]	–	–	–	–	95.6	91.2	21.3	8.99	6.8
KU-812 [3]	–	–	–	–	95.5	99.6	13.1	3.16	1.45
ML-2 [6]	–	–	–	–	94.6	84.8	0.565	0.238	3.1
MOLM-13 [12]	–	–	–	–	91.4	70.9	0.317	2.79	0.537
MV4-11 [11]	–	–	–	–	91.1	54.2	2	2.09	-0.156
Mono-Mac-6 [5]	–	–	–	–	87.3	98	2.7	0.495	0.236
NOMO-1 [7]	–	–	–	–	98.7	98.9	12.6	2.17	0.853
SHI-1 [1]	–	–	–	–	97.1	85.8	0.99	-0.151	0.783
THP-1 [8]	–	–	–	–	98.8	102	78.5	30.4	13.6

Settings	IC50 (cell viability) [nM]
BV-173 [18]	11.4
HEL [24]	33.3
HL-60 [27]	22.5
K-562 [16]	97
KCL-22 [28]	59.4
KG-1 [23]	42.7
KU-812 [17]	40.7
LAMA-84	65.4
ML-2 [20]	24.5
MOLM-13 [26]	18
MV4-11 [25]	11.9
Mono-Mac-6 [19]	34.4
NOMO-1 [21]	40.5
SHI-1 [15]	24
THP-1 [22]	289
